In patent publication US9556201B2, “Bicyclic pyridines and analogs as sirtuin modulators” (GLAXOSMITHKLINE LLC, priority 2009, dated 2017):

Key:
TNF = TNF IC50 (column of Table 1; method not in the text shown); assay type: cell-based
SIRT1 = target: T1, SIRT1 (Homo sapiens, UniProt Q96EB6); assay: Mass spectrometry based assay to identify modulators of SIRT1 activity (deacetylation of p53-based acetylated peptide substrate); assay type: biochemical; conditions: for Emax: 25 min, SIRT1 activation, read-out: % FOLD ACT. (percent maximum fold activation)
T1 sequence (Q96EB6 1-747): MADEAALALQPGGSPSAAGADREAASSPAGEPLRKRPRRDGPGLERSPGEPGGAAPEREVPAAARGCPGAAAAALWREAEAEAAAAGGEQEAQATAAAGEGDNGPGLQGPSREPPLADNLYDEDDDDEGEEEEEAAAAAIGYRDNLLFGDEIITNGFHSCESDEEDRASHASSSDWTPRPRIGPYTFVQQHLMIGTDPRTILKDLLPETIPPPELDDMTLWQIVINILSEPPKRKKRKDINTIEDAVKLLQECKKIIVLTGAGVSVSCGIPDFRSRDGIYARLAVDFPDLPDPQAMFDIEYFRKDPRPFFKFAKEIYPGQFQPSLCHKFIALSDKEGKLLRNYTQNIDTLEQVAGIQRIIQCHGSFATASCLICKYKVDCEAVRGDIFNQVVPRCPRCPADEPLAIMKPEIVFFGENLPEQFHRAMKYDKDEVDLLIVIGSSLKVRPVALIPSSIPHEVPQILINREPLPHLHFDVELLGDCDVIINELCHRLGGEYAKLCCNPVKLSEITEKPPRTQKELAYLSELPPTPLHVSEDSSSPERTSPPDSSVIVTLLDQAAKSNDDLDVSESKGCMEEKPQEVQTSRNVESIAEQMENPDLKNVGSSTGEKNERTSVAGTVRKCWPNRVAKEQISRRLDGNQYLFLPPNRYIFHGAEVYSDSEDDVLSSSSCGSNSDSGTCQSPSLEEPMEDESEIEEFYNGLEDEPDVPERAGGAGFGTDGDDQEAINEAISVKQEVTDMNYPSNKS
Outline: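 His-tagged human SIRT1 (10 nM, E. coli) incubated 25 min at 25 °C with […] p53-derived acetylated 5TMR peptide and 120 μM βNAD+ in pH 8 Tris-acetate buffer, then formic acid-stopped. Mass spectrometry quantifies acetylated vs deacetylated peptide; nicotinamide and DMSO controls.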

Row | Compound | IC50 (TNF) | EC1.5 (concentration giving 1.5-fold activation) (SIRT1) | Emax (SIRT1)
1 | O=C(Nc1ccccn1)N1CCc2ccc(-c3cccc(C(F)(F)F)c3)nc21 [Compound 861, N-(pyridin-2-yl)-6-(3-(trifluoromethyl)phenyl)-2,3-dihydro-1H-pyrrolo[2,3-b]pyridine-1-carboxamide] | ≥ 20 µM | < 1000 nM | > 200%
2 | O=C(Nc1ccnc(OC[C@H](O)CO)c1)N1CCCOc2ccc(-c3cccc(Cl)c3)nc21 [Compound 864] | < 20 µM | 1000 to 25000 nM | > 200%
3 | O=C(Nc1cncc(OCC(O)CO)n1)N1CCc2ccc(-c3cccc(C(F)(F)F)c3)nc21 (stereo not drawn) [Compound 868] | < 20 µM | < 1000 nM | > 200%
4 | O=C(Nc1cccc(N2CC3(CCO3)C2)n1)N1CCc2ccc(-c3cccc(C(F)(F)F)c3)nc21 [Compound 869] | < 20 µM | < 1000 nM | > 200%
5 | O=C(Nc1ccncc1F)N1CCc2ccc(-c3cccc(C(F)(F)F)c3)nc21 [Compound 870] | < 20 µM | < 1000 nM | > 200%
6 | COc1cc(NC(=O)N2CCCOc3ccc(-c4cccc(Cl)c4)nc32)nc(OC)n1 [Compound 873] | ≥ 20 µM | < 1000 nM | > 200%
7 | O=C(Nc1ccnc(OCC(O)CO)n1)N1CCc2ccc(-c3cccc(C(F)(F)F)c3)nc21 (stereo not drawn) [Compound 874] | ≥ 20 µM | < 1000 nM | > 200%
8 | O=C(Nc1cc(OCC(O)CO)ccn1)N1CCc2ccc(-c3cccc(C(F)(F)F)c3)nc21 (stereo not drawn) [Compound 875] | < 20 µM | < 1000 nM | > 200%
9 | O=C(Nc1ccnc(OCC(O)CO)n1)N1CCCOc2ccc(-c3cccc(Cl)c3)nc21 (stereo not drawn) [Compound 876] | < 20 µM | < 1000 nM | > 200%
10 | O=C(Nc1cccc(N2CC3(COC3)C2)n1)N1CCc2ccc(-c3cccc(C(F)(F)F)c3)nc21 [Compound 877] | < 20 µM | < 1000 nM | > 200%
11 | O=C(Nc1cnc(OC[C@H](O)CO)cn1)N1CCCOc2ccc(-c3cccc(Cl)c3)nc21 [Compound 878] | < 20 µM | < 1000 nM | > 200%
12 | O=C(Nc1ccc2nccn2c1)N1CCCOc2ccc(-c3cccc(Cl)c3)nc21 [Compound 880] | < 20 µM | < 1000 nM | > 200%

Results, then the compound that gave them:

Row | IC50 (TNF) | EC1.5 (concentration giving 1.5-fold activation) (SIRT1) | Emax (SIRT1) | Compound
13 | ≥ 20 µM | < 1000 nM | > 200% | O=C(Nc1ccc2nccnc2c1)N1CCCOc2ccc(-c3cccc(Cl)c3)nc21 [Compound 881]
14 | ≥ 20 µM | < 1000 nM | > 200% | COc1cc(NC(=O)N2CCCOc3ccc(-c4cccc(Cl)c4)nc32)ccn1 [Compound 882]
15 | < 20 µM | < 1000 nM | > 200% | Cn1cc2ccc(NC(=O)N3CCCOc4ccc(-c5cccc(Cl)c5)nc43)cc2n1 [Compound 883]
16 | ≥ 20 µM | 1000 to 25000 nM | > 200% | O=C(Nc1cccnc1)N1CCCc2ccc(-c3cccnc3)nc21 [Compound 886]
17 | ≥ 20 µM | < 1000 nM | > 200% | O=C(Nc1cccnc1)N1CCOc2ccc(-c3cccc(C(F)(F)F)c3)nc21 [Compound 887]
